In patent US20220000818A1, “COMPOSITIONS FOR USE IN PREVENTING ACNE” (Nogra Pharma Limited, priority 2019, published 2022):

Tests used:
Format in all cases: cell-based, human
[1] = tested on: IL-6 release from SZ95 sebocytes; test: IL-6 release ELISA in SZ95 sebocytes; settings: all sebocytes (SZ95-SF and SZ95-S), 0.1 μM insulin
Procedure: (§1) Immortalized human SZ95 sebocytes (Zouboulis et al., 1999), showing morphologic, phenotypic, and functional characteristics of normal human sebocytes, were cultured in 5% CO2 at 37° C. in Sebomed basal medium, 1% L-glutamine, 1% penicillin/streptomycin, 5 ng/mL recombinant human epidermal growth factor, and 1 mM CaCl2, with or without 10% FBS supplement. All experiments were performed at least in triplicate.
SZ95 culture supernatants were collected and centrifuged to remove cell debris. Aliquots were then stored at −80° C. until use. IL-6 protein level was determined by ELISA (Life Technologies, Invitrogen; Milan, Italy), and normalized for cell number. In stratum corneum specimens, concentration of IL-1α was assessed by ELISA (Life Technologies, Invitrogen, Milan, Italy), and normalized against the total amount of soluble protein. Levels of IL-1α were reported as pg/pg protein. The results represent the average of three independent experiments performed in triplicate.
To determine the effect of insulin exposure on inflammatory cytokine release in sebocytes at different stages of differentiation, IL-6 release was measured by ELISA following exposure of SZ95-SF and SZ95-S sebocytes to 0.1 μM insulin.

[2] = tested on: SZ95 sebocytes; test: Metabolic activity and cell viability of SZ95 sebocytes; settings: SZ95-S or SZ95-SF sebocytes exposed to NAC-GED0507
Procedure: as §1
SZ95-SF and SZ95-S sebocytes were cultured for an additional 24 hours in the presence of 0.1 μM insulin and/or 1 mM of the PPARγ modulator N-acetyl-(S)-3-(4′-aminophenyl)-2-methoxypropionic acid (“NAC-GED0507”).

[3] = tested on: pAkt and pS6 (PI3K/Akt pathway) in SZ95 sebocytes; test: Western blot of insulin-induced pAkt and pS6 in SZ95 sebocytes; settings: SZ95-SF cells, 0.1 μM insulin and 1 mM NAC-GED0507, 24 hours
Procedure: as §1
(§2) For protein extraction, cells were lysed in RIPA buffer (50 mM Tris-HCl pH 7.4, 1% Nonidet P40, 0.25% deoxycholate, 150 mM NaCl, 1 mM EDTA, 1 mM PMSF, 1 mM Na3VO4, 5 mM NaF), supplemented with a protease inhibitor cocktail (Roche, Mannheim, Germany), for 30 minutes at 4° C., then sonicated. Total cell lysates were clarified by centrifugation at 12,000 rpm for 10 minutes at 4° C. and then stored at −80° C. until analysis.
(§3) Protein levels were measured by spectrophotometry, and protein (50 μg) was loaded and resolved using an acrylamide SDS-PAGE gel, and finally transferred onto a nitrocellulose membrane (Amersham Biosciences, Milan, Italy). Protein transfer efficiency was evaluated by Ponceau S staining (Sigma-Aldrich). […] Protein levels were quantified by measuring optical density of specific bands using a UVI-TEC System (Eppendorf, Hamburg, Germany). […]

[4] = tested on: SZ95 sebocytes; test: LC-MS analysis of 5-HETE and 15-HETE in SZ95 cell media; settings: SZ95-SF and SZ95-S sebocytes, insulin and NAC-GED0507
Procedure: as §1
Levels of the polyunsaturated fatty acids 5-hydroxyeicosatetraenoic acid (5-HETE) and 15-hydroxyeicosatetraenoic acid (15-HETE) in cell media were measured by HPLC\MS\MS. Chromatographic separation was carried out using an Agilent Technologies 1200 HPLC Liquid Chromatography System (Palo Alto, Calif., USA) with a Symmetry C18 column ([…], 100 mm×2.1 mm; Waters, Milford, Mass., USA) as previously reported (Furugen A et al., (2015) “Simultaneous quantification of leukotrienes and hydroxyeicosatrienoic acids in cell culture medium using liquid chromatography/tandem mass spectrometry” Biomed Chromatogr 29:1084-1093). […] For each compound to be quantified, an internal standard was selected and a linear curve was generated where the ratio of analyte standard peak area to internal standard peak area was plotted against the amount of analyte standard. The results were calculated as nM/106 cells and then reported as % variation vs control values. […]

[5] = tested on: SREBP-1, FAS, FADS-2, SCD-1, DGAT1 mRNA in SZ95 sebocytes; test: Real-time RT-PCR of lipidogenic gene mRNA in SZ95 sebocytes
Procedure: as §1
Total RNA was isolated using the Aurum™ Total RNA Mini kit (Bio-Rad Laboratories Srl; Milan, Italy). Total RNA quantity, purity, and the absence of ribonuclease activity were assessed by OD260/280 absorbance measurements and by agarose gel electrophoresis. Total RNA samples were stored at −80° C. until use. Following DNAse I treatment, cDNA was synthesized using a mix of oligo-dT and random primers and RevertAid™ First Strand cDNA synthesis kit (Thermo Fisher Scientific; Monza, Italy). Quantitative real time RT-PCR was performed in a total volume of 15 μL with SYBR Green PCR Master Mix (Bio-Rad Laboratories Srl) and 200 nM concentration of each primer.
Reactions were carried out in triplicate using an iQ™ 5 iCycler supplied with the iQ™ 5 Real-Time Detection System (Bio-Rad Laboratories; Hercules, Calif., USA). Melt curve analysis was performed to confirm the specificity of the amplified products. Expression of mRNA species was normalized to the expression of GAPDH mRNA by the change in the Δ cycle threshold (ΔCt) method and calculated based on 2^−Δct.
SZ95-S and SZ95-SF sebocytes were cultured for an additional 24 hours in the presence of 0.1 μM insulin and/or 1 mM NAC-GED0507.

[6] = tested on: lipoxygenase (LOX); test: Lipoxygenase activity assay in SZ95 sebocyte lysates; settings: SZ95-S and SZ95-SF cells, 0.1 μM insulin and NAC-GED0507
Procedure: Immortalized human SZ95 sebocytes (Zouboulis et al., 1999), showing morphologic, phenotypic, and functional characteristics of normal human sebocytes, were cultured in 5% CO2 at 37° C. in Sebomed basal medium, 1% L-glutamine, 1% penicillin/streptomycin, 5 ng/mL recombinant human epidermal growth factor, and 1 mM CaCl2, with or without 10% FBS supplement. All experiments were performed at least in triplicate. Lipoxygenase (LOX) activity was evaluated spectrophotometrically by monitoring the conversion of the LOX substrate linoleic acid (LA) to the corresponding hydroperoxy fatty acid. SZ95 sebocytes were lysed in 50 mM Tris/HCl buffer (pH 7.4) (Merck; Darmstadt, Germany) by repeated freezing in liquid nitrogen and thawing. Protein content was determined by Bradford assay using bovine serum albumin as the protein standard. Aliquots of supernatants containing 50 μg of protein were added to Tris/HCl buffer containing 200 μM LA in a final volume of 1 mL. All reactions were performed in 1-cm path length quartz cuvettes. The absorbance at 234 nm was recorded at room temperature for 10 minutes using a Lambda 25 UV/Vis spectrophotometer (Perkin-Elmer, UK). SZ95 sebocytes cultured under serum and serum-free conditions were analyzed for LOX expression. SZ95-SF sebocytes expressed slightly higher basal levels of LOX compared to SZ95-S sebocytes (data not shown). […]

[7] = tested on: PPARγ and EMA protein in SZ95-SF cells; test: Western blot of PPARγ and EMA (sebocyte differentiation) in SZ95-SF cells; settings: 24 hours
Procedure: as §1, §2, §3

[8] = tested on: SZ95 sebocytes; test: GC-MS analysis of fatty acid production (lipogenesis) in SZ95 sebocytes; settings: insulin and NAC-GED0507, 48 hours or 72 hours
Procedure: as §1
Lipids were extracted from SZ95 sebocytes using a modified version of the protocol described in Bligh E G and Dyer W J, J Biochem Physiol, 1959. Lipids were extracted with chloroform: methanol (2:1) solution (2×1 mL) after the addition of butylhydroxytoluene to prevent oxidation of oxygen sensitive compounds. 5 μg of methylated tricosanoic acid was added as internal standard to control the analytical performance and to calculate the relative abundance of the fatty acids detected. Organic layers were collected and evaporated under nitrogen. Dried lipid extract was dissolved in 100 μL acetone/methanol/isopropanol (40:40:20) solution and 20 μL were used for the analysis of bound fatty acids (FA).
Bound fatty acids (FA) were analyzed as FA methyl esters (FAME) obtained after derivatization. For simultaneous saponification and methylation of bound FA, 250 μL KOH solution (0.5 M) in anhydrous methanol was added to the dried extract and incubated at 37° C. for 20 minutes with constant shaking. 0.5 mL HCl (0.25 M) was added to neutralize the alkaline reaction mixture. After vortexing, 0.25 mL K2SO4 (6.7%) and 1 mL hexane:isopropanol (3:2 v/v) solution containing 0.0025% BHT were added and vortexed. After centrifugation, the lipid enriched upper phase was transferred to an Eppendorf tube and evaporated under nitrogen. The dried FAME extract was dissolved in 50 μL n-hexane and analyzed by GC-MS to establish FA profiles in the lipid extracts (Thermo-Finnigan, Waltham, Mass., USA). Chromatographic separation was carried out on a HP-FFAP capillary column (Agilent Technologies, Santa Clara, Calif., USA; crosslinked FFAP, length 50 m, film thickness 0.52 μm). Helium was used as the carrier gas. The initial GC oven temperature was 40° C. and was linearly ramped up to 240° C. at 8° C./min. The total run time was 60 min. The injector and the GC-MS transfer lines were kept at 230° C. and 250° C., respectively. Total ion chromatograms (TIC) were acquired, and areas of single peaks, corresponding to the FAME, were integrated with the qualitative analysis software. Identity of the detected FAME was verified by comparison with authentic standards and matched with library spectral data.
SZ95-SF and SZ95-S sebocytes were also cultured for 48 hours or 72 hours in the presence of insulin and NAC-GED0507.

[9] = SZ95-SF cells, pre-treatment with NAC-GED0507

## CO[C@@H](Cc1ccc(NC(C)=O)cc1)C(=O)O [NAC-GED0507, N-acetyl-(S)-3-(4′-aminophenyl)-2-methoxypropionic acid]
[1]
  IL-6 cytokine release: significantly reduced
[2]
  cell viability: No significant changes
  metabolic activity: No significant changes
[3]
  insulin-induced pAkt: significant decrease
  insulin-induced pS6: significant decrease
[4]
  increase in 5-HETE stimulated by insulin: countered the increase
  increase in 15-HETE stimulated by insulin: countered the increase
[5]; 0.1 μM insulin and 1 mM NAC-GED0507, 24 hours
  up-regulation of lipidogenic genes (SREBP-1, FAS, FADS-2, SCD-1 mRNA) observed with insulin alone: significantly inhibited
[5]; SZ95-SF cells, 0.1 μM insulin
  DGAT1 mRNA levels (decreased by insulin): countered the effects of insulin exposure
[5]; [9]
  insulin-stimulated FADS2 mRNA expression: reduced the effect
  insulin-stimulated SCD1 mRNA expression: reduced the effect
  insulin-stimulated SREBP1 mRNA expression: reduced the effect
[6]
  insulin-induced increase in LOX activity: inhibited
[7]
  EMA protein expression: increase
  PPARγ protein expression: increase
[8]; SZ95-SF sebocytes
  production of mono-unsaturated fatty acids in response to insulin: significantly inhibited
  production of poly-unsaturated fatty acids in response to insulin: significantly inhibited
  total fatty acid synthesis stimulated by insulin: significantly inhibited
[8]
  inhibition of unsaturated fatty acid production in SZ95-SF in comparison to SZ95-S sebocytes: relatively more robust
